The structures appear in SMILES notation.

Among the data in patent US12522607B2, “Substituted pyrazolo[3,4-d]pyrimidines as wee-1 inhibitors” (WIGEN BIOMEDICINE TECHNOLOGY (SHANGHAI) CO., LTD., priority 2020, dated 2026) are IC50 values, retold here.

For one experiment, the target named is T1, Wee-1 kinase (Homo sapiens, UniProt P30291).
T1 construct: purchased Invitrogen
As to the kind of experiment: Inhibitory activity against Wee-1 kinase (Lanthra Screen Wee-1 kinase kit, Tracer 178). The format is binding. Conditions: Wee-1 kinase 5 nM, Tracer 178 50 nM, 1 h room temperature. Summed up:
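Compound gradient in DMSO mixed with 5 nM Wee-1, 2 nM Eu-anti-GST antibody and 50 nM Tracer 178 (all final). Read after one hour at room temperature; IC50 calculated against the DMSO solvent control.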

Another experiment has as its system HT29 cells. As to the kind of experiment: Antiproliferative activity against HT29 cells (Cell Titer-Lumi, ATP content). The format is cell-based. Particulars: Homo sapiens, HT-29, 72 after compound addition, read-out: HT-29 cells Anti-proliferative activity (IC50 for the inhibition against HT-29 cell growth). Summed up:
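Growth inhibition IC50 derived from luminescent ATP content after 72 (units as printed) of compound exposure over a dilution gradient. Seeding density 3000 cells per well; compound added once cells had adhered overnight.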

T1 sequence (P30291 whole entry): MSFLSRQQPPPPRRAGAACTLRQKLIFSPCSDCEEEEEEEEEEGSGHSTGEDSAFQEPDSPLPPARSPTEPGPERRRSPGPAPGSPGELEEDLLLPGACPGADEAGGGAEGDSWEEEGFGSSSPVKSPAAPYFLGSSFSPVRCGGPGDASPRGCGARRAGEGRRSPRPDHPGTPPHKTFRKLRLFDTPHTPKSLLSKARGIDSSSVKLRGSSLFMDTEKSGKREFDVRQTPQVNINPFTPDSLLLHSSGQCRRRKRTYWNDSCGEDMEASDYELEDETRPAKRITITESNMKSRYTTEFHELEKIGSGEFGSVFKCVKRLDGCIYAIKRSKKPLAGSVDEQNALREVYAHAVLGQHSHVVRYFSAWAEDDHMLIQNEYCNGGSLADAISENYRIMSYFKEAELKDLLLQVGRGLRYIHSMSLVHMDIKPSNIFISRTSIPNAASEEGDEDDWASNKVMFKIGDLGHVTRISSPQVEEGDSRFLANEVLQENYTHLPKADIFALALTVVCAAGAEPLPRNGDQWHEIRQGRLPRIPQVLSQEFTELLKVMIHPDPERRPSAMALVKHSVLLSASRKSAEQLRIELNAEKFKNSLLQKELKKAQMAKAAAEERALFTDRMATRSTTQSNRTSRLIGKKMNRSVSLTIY

Consider `C=CCn1c(=O)c2cnc(Nc3ccc(N4CCN(C5CCN(C)CC5)CC4)c(C)c3)nc2n1-c1ccc(=O)n(C(C)C)n1` [Compound 139], for which the IC50 (commonly the concentration needed to halve the response being measured) is ≤ 30 nM at Wee-1 kinase and ≤ 1000 nM with HT29 cells.
For the compound `C=CCn1c(=O)c2cnc(Nc3ccc(N4CCN(C5CCN(C)CC5)CC4)c(F)c3)nc2n1-c1ccc(=O)n(C(C)C)n1` [Compound 140], the results for the IC50 on Wee-1 kinase and with HT29 cells were ≤ 30 nM and ≤ 1000 nM, respectively.
Consider `C=CCn1c(=O)c2cnc(Nc3ccc(N4CCN(C5CCN(C)CC5)CC4)c(OC)c3)nc2n1-c1ccc(=O)n(C(C)C)n1` [Compound 141], for which the IC50 against Wee-1 kinase was ≤ 30 nM; with HT29 cells, ≤ 1000 nM.
As for `C=CCn1c(=O)c2cnc(Nc3ccc(N4CCC(N5CCN(C)CC5)CC4)cc3)nc2n1-c1ccc(=O)n(C(C)C)n1` [Compound 142], the IC50 against Wee-1 kinase is ≤ 30 nM; in the experiment on HT29 cells, ≤ 1000 nM.
For `C=CCn1c(=O)c2cnc(Nc3ccc(N4CCC(N5CCN(C)CC5)CC4)c(C)c3)nc2n1-c1ccc(=O)n(C(C)C)n1` [Compound 143], the values for the IC50 against Wee-1 kinase and in the experiment on HT29 cells were ≤ 30 nM and ≤ 1000 nM, respectively.
For `C=CCn1c(=O)c2cnc(Nc3ccc(N4CCC(N5CCN(C)CC5)CC4)c(OC)c3)nc2n1-c1ccc(=O)n(C(C)C)n1` [Compound 144] the same measures were ≤ 30 nM and ≤ 1000 nM.
Turning to `C=CCn1c(=O)c2cnc(Nc3ccc(N4CCC(N5CCCCC5)CC4)cc3)nc2n1-c1ccc(=O)n(C(C)C)n1` [Compound 145], the IC50 at Wee-1 kinase was ≤ 30 nM; with HT29 cells, ≤ 1000 nM.
With `C=CCn1c(=O)c2cnc(Nc3ccc(N4CCC(N5CCCCC5)CC4)c(C)c3)nc2n1-c1ccc(=O)n(C(C)C)n1` [Compound 146], the IC50 on Wee-1 kinase was ≤ 30 nM; in the experiment on HT29 cells, ≤ 1000 nM.
As to `C=CCn1c(=O)c2cnc(Nc3ccc(N4CCC(N5CCCCC5)CC4)c(OC)c3)nc2n1-c1ccc(=O)n(C(C)C)n1` [Compound 147], the IC50 was ≤ 30 nM on Wee-1 kinase and ≤ 1000 nM in the experiment with HT29 cells.
In the case of `C=CCn1c(=O)c2cnc(Nc3ccc(N4CCC(N5CCOCC5)CC4)cc3)nc2n1-c1ccc(=O)n(C(C)C)n1` [Compound 148], the values for the 50% inhibitory concentration (IC50) at Wee-1 kinase and in the experiment on HT29 cells were ≤ 30 nM and ≤ 1000 nM, respectively.
On the same counts, the results for `C=CCn1c(=O)c2cnc(Nc3ccc(N4CCC(N5CCOCC5)CC4)c(C)c3)nc2n1-c1ccc(=O)n(C(C)C)n1` [Compound 149] are ≤ 30 nM and ≤ 1000 nM.
In the case of `C=CCn1c(=O)c2cnc(Nc3ccc(N4CCC(N5CCOCC5)CC4)c(OC)c3)nc2n1-c1ccc(=O)n(C(C)C)n1` [Compound 150], the half-maximal inhibitory concentration (IC50) against Wee-1 kinase is ≤ 30 nM; in the experiment on HT29 cells it was ≤ 1000 nM.
Regarding `C=CCn1c(=O)c2cnc(Nc3ccc(N4CCC(N5CCC(F)(F)CC5)CC4)cc3)nc2n1-c1ccc(=O)n(C(C)C)n1` [Compound 151], the results for the IC50 against Wee-1 kinase and with HT29 cells were ≤ 30 nM and ≤ 1000 nM, respectively.
Take `C=CCn1c(=O)c2cnc(Nc3ccc(N4CCC(N5CCC(F)(F)CC5)CC4)c(C)c3)nc2n1-c1ccc(=O)n(C(C)C)n1` [Compound 152]: the IC50 is ≤ 30 nM against Wee-1 kinase and ≤ 1000 nM with HT29 cells.
On the same counts, the results for `C=CCn1c(=O)c2cnc(Nc3ccc(N4CCC(N5CCC(F)(F)CC5)CC4)c(OC)c3)nc2n1-c1ccc(=O)n(C(C)C)n1` [Compound 153] are ≤ 30 nM and ≤ 1000 nM.
Take `C=CCn1c(=O)c2cnc(Nc3ccc(N4CC5(CNC5)C4)cc3)nc2n1-c1ccc(=O)n(C(C)C)n1` [Compound 154]: the figures for the half-maximal inhibitory concentration (IC50) against Wee-1 kinase and in the experiment on HT29 cells were ≤ 30 nM and 1000 to 3000 nM, respectively.
`C=CCn1c(=O)c2cnc(Nc3ccc(N4CC5(CNC5)C4)c(C)c3)nc2n1-c1ccc(=O)n(C(C)C)n1` [Compound 155]: the IC50 at Wee-1 kinase was ≤ 30 nM; in the experiment with HT29 cells it was ≤ 1000 nM.
For `C=CCn1c(=O)c2cnc(Nc3ccc(N4CC5(CNC5)C4)c(OC)c3)nc2n1-c1ccc(=O)n(C(C)C)n1` [Compound 156], the IC50 at Wee-1 kinase was ≤ 30 nM; with HT29 cells, 1000 to 3000 nM.
Consider `C=CCn1c(=O)c2cnc(Nc3ccc(N4CC5(CN(C)C5)C4)cc3)nc2n1-c1ccc(=O)n(C(C)C)n1` [Compound 157], for which the IC50 on Wee-1 kinase was ≤ 30 nM; with HT29 cells, ≤ 1000 nM.
